Laboratory results taken from US20240208945A1, “6-CARBAMATE SUBSTITUTED HETEROARYL RING DERIVATIVES” (MEDSHINE DISCOVERY INC., priority 2021, published 2024).
Structures can show the parent of a compound that is named as a salt.

Tests used:
[1] = test system: Human pancreatic cancer cells (Miapaca2); experiment: In vivo drug efficacy in the Miapaca2 nude mouse xenograft tumor model; set-up: species or system Balb/c nude mice; settings: Miapaca-2 xenograft, AMG-510 5 mg/kg once a day, compound 14 hydrochloride 50 mg/kg twice a day, intragastric
Method: Human pancreatic cancer cells (Miapaca2) were cultured in vitro as a monolayer on an adherent surface, and the culture conditions were DMEM medium plus 10% fetal bovine serum, cultured in a 37° C., 5% CO2 incubator. The cells were treated with trypsin-EDTA for routine digestion and passaged two to three times a week. When the cell saturation was 80% to 90% and the number reached the requirements, the cells were collected, counted, and inoculated.
Balb/c nude mice, female, 6 to 7 weeks old, were purchased from Shanghai SIPPR-BK Lab Animal Co., Ltd.
0.2 mL (5×10^6) Miapaca-2 cells (plus Matrigel, volume ratio of 1:1) were subcutaneously inoculated on the right back of each mouse, and the administration in groups began when the average tumor volume reached 118 mm^3.
The tumor diameter was measured twice a week with a vernier caliper, and the tumor volume was measured in cubic millimeters, calculated by the following formula: V=0.5a×b^2, wherein a and b are the long and short diameters of the tumor, respectively. The tumor inhibitory efficacy of the test compound was evaluated by using TGI (%). TGI (%) reflects the rate of tumor growth inhibition. […]

[2] = biological target: binding of KRAS(G12C) to SOS1 (Homo sapiens (Human), UniProt Q07889); experiment: KRAS(G12C) and SOS1 binding assay (HTRF); settings: 25° C., 60 minutes
Text: The small molecular compound binds to the catalytic site of SOS1, thus inhibiting the binding of SOS1 to KRAS (G12C). When the binding of fluorescently labeled SOS1 protein to fluorescently labeled KRAS (G12C) protein is inhibited, the emitted fluorescence changes. The ability of small molecules to prevent the binding of SOS1 to KRAS (G12C) can be tested by detecting changes in fluorescence. A homogeneous time-resolved fluorescence (HTRF) binding assay was used to detect the ability of the compounds of the present disclosure to inhibit the binding of SOS1 to KRAS (G12C).
KRAS (G12C) protein was expressed and purified by Wuhan AtaGenix Biotechnology Co., Ltd., SOS1 exchange domin (564-1049) protein (Human recombinant) was purchased from Cytoskeleton, Mab Anti 6HIS-XL665 and Mab Anti GST-Eu cryptate were purchased from Cisbio. Multimode microplate reader Nivo5 was purchased from PerkinElmer.
1× buffer preparation (ready-to-use): Hepes: 5 mM; NaCl: 150 mM; EDTA: 10 mM; Igepal: 0.0025%; KF: 100 mM; DTT: 1 mM; BSA: […];
The test compounds were 5-fold diluted with DMSO using a multi-channel pipette to the 8th concentration, i.e., diluted from 1 mM to 0.064 μM.
The test compound was diluted by gradient with 1× buffer to a working solution with 2% DMSO. 5 μL/well of the working solution was added to corresponding wells, and the corresponding concentration gradient was 20 μM to […]. Duplicate experiment was set. The working solution was centrifuged at 1000 rpm for 1 minute.
A mixed working solution of KRAS(G12C) (200 nM) and Mab Anti GST-Eu cryptate (1 ng/μL) was prepared with 1× buffer, and the mixed working solution was incubated at 25° C. for 5 minutes, and 2.5 μL/well of the mixed working solution was added to the corresponding wells.
A mixed working solution of SOS1 (80 nM) and Mab Anti 6HIS-XL665 ([…]) was prepared with 1× buffer, and 2.5 μL/well of the mixed working solution was added to the corresponding wells. 2.5 μL of Mab Anti 6HIS-XL665 ([…]) diluent was added to blank wells. At this time, the final concentration gradient of the compound was diluted from 10 μM to 0.64 nM, KRAS(G12C) ([…]), MAb Anti GST-Eu cryptate (0.25 ng/μL), SOS1 (20 nM), Mab Anti 6HIS-XL665 (2 g/μL), the reaction system was placed at 25° C. for 60 minutes. After the reaction was completed, the multimode microplate reader was used to read HTRF.
Using the equation (Sample−Min)/(Max−Min)×100% to convert the raw data into inhibition rate, the IC50 value might be obtained by curve fitting with four parameters (obtained by “log (inhibitor) vs. response—Variable slope” mode in GraphPad Prism).

[3] = Pharmacokinetic evaluation in CD-1 mice (IV and oral); type: in vivo; settings: mouse, plasma
Method: CD-1 mice (male, 7 to 9 weeks old, Shanghai SLAC)
The pharmacokinetic characteristics of the compound in rodents after intravenous injection and oral administration were tested according to the standard protocol. In the experiment, the candidate compound was formulated into clear solutions, and a single intravenous injection and oral administration were given to mice. The vehicle for intravenous injection and oral administration was a mixed vehicle composed of 10% dimethyl sulfoxide and 90% hydroxypropyl β-cyclodextrin with a content of 10%. In this project, four female CD-1 mice were used, and two mice were administered intravenously at a dose of 1 mg/kg. Plasma samples were collected at 0.033, 0.083, 0.25, 0.5, 1, 2, 4, 8, and 12 hours after administration. The other two mice were administered orally by gavage at a dose of 2 mg/kg. Plasma samples were collected at 0.083, 0.25, 0.5, 1, 2, 4, 8, and 12 hours after administration, […] at 4° C. for 10 minutes at 3,200×g, and the supernatants were separated from the plasma samples. The protein was precipitated by adding 20 times the volume of methanol solution containing internal standard, […] at 12000×g for 15 minutes, centrifuged at 4° C. 50 μL of the supernatant was transferred to a 96-well plate and centrifuged for a second time to take the supernatant for injection. The plasma concentration was quantitatively analyzed by LC-MS/MS analysis method, and the pharmacokinetic parameters were calculated, such as peak concentration (Cmax), clearance rate (CL), half-life (T1/2), volume of distribution at steady state (Vdss), area under drug-time curve (AUC0-last), bioavailability (F).

p-ERK in DLD-1 cells = experiment: p-ERK inhibitory activity test in DLD-1 cells (HTRF Phospho-ERK1/2 kit); type: cell-based; settings: Homo sapiens, 1 hour incubation
Method: DLD-1 cells were purchased from Nanjing Cobioer; 1640 medium was purchased from Biological Industries; fetal bovine serum was purchased from Biosera; Advanced Phospho-ERK1/2 (THR202/TYR204) KIT was purchased from Cisbio.
DLD-1 cells were seeded in a transparent 96-well cell culture plate, with 80 μL of cell suspension per well and 8000 DLD-1 cells per well. The cell plate was incubated in a carbon dioxide incubator at 37° C. overnight; • the test compound was diluted to 2 mM with 100% DMSO as the first concentration, and then 5-fold diluted to the 8th concentration with a pipette, that is, diluted from 2 mM to 0.026 μM. 2 μL of compound was added to 78 μL of cell starvation medium. After mixing well, 20 μL of compound solution was taken and added to the corresponding cell plate wells, and the cell plate was put back to the carbon dioxide incubator to continue to incubate for 1 hour; at this time, the concentration of the compound was from 10 μM to 0.128 nM, and the concentration of DMSO was 0.5%; • after the incubation was completed, the cell supernatant was discarded, and 50 μL of cell lysate was added to each well, and incubated at room temperature for 30 minutes with shaking; • Phospho-ERK1/2 Eu Cryptate antibody and Phospho-ERK1/2 d2 antibody were 20-fold diluted using Detection buffer; • 16 μL of cell lysate supernatant per well was put into a new 384 white microplate, then 2 μL of Phospho-ERK1/2 Eu Cryptate antibody diluent and 2 μL of Phospho-ERK1/2 d2 antibody diluent were added thereto and incubated at room temperature for 4 hours; • after the incubation was completed, a multimode microplate reader was used to read HTRF excitation: 320 nm, emission: 615 nm, 665 nm.
Using the equation (Sample−Min)/(Max−Min)*100% to convert the raw data into inhibition rate, the IC50 value might be obtained by curve fitting with four parameters (obtained by “log (inhibitor) vs. response—Variable slope” mode in GraphPad Prism). • Max well: Positive control well reading is 1× lysate • Min well: Negative control well reading is 0.5% DMSO cell well cell lysate

[4] = Pharmacokinetic evaluation in Balb/c mice (IV and oral); type: in vivo; settings: male, mouse, plasma; for Cmax: IV 10 mg/kg and oral 50 mg/kg study, read-out: Peak concentration Cmax; for bioavailability / clearance / half-life / Vd: IV 10 mg/kg; for bioavailability / AUC(0-t): PO 50 mg/kg; for bioavailability: read-out: Bioavailability F; for clearance: read-out: Clearance rate CL; for half-life: read-out: Half life T1/2 (IV) (converted); for Vd: read-out: Volume of distribution at steady state Vdss; for AUC(0-t): read-out: Area under drug-time curve AUC0-last PO
Method: Balb/c mice (male, Beijing Vital River Laboratory Animal Technology Co., Ltd.)
The pharmacokinetic characteristics of the compound in rodents after intravenous injection and oral administration were tested according to the standard protocol. In the experiment, the candidate compound was formulated into clear solutions, and a single intravenous injection and oral administration were given to mice. The vehicle for intravenous injection and oral administration was a mixed vehicle composed of 5% dimethyl sulfoxide, 5% solutol, and 90% water. In this project, four male Balb/c mice were used, and two mice were administered intravenously at a dose of 10 mg/kg. Plasma samples were collected at 0.083, 0.25, 0.5, 1, 2, 4, 8, and 24 hours after administration. The other two mice were administered orally by gavage at a dose of 50 mg/kg. Plasma samples were collected at 0.25, 0.5, 1, 2, 4, 6, 8, 12, and 24 hours after administration. Blood samples were placed on ice after collection and centrifuged to separate plasma within 1 hour (centrifugation conditions: 6000 g, 3 minutes, 2 to 8° C.). Plasma samples were stored in a −80° C. refrigerator before analysis. The plasma concentration was quantitatively analyzed by LC-MS/MS analysis method, and the pharmacokinetic parameters were calculated, such as peak concentration (Cmax), clearance rate (CL), half-life (T1/2), volume of distribution at steady state (Vdss), area under drug-time curve (AUC0-last), bioavailability (F).

Chain of binding of KRAS(G12C) to SOS1 (Q07889 564-1049, stated change not applied): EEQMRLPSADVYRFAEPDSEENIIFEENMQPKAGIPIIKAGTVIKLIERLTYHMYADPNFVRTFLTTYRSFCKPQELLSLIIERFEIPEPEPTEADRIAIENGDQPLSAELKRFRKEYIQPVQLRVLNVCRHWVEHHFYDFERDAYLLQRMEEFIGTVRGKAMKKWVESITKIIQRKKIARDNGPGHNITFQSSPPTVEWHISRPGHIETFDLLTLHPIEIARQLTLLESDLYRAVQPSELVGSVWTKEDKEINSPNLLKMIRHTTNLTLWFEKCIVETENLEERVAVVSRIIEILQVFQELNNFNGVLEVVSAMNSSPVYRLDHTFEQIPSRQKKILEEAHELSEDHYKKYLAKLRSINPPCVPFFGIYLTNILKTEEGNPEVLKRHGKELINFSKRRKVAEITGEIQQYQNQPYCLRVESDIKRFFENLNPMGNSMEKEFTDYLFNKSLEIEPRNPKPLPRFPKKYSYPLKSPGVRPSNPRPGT

SMILES | Mean tumor volume ± SEM (day 22) [1] | TGI ([1]; day 22) | IC50 [2] | Cmax ([3]; IV 1 mg/kg and oral 2 mg/kg study, read-out: Peak concentration Cmax) | bioavailability ([3]; IV 1 mg/kg, PO 2 mg/kg, read-out: Bioavailability F) | clearance ([3]; IV 1 mg/kg, read-out: Clearance rate CL) | half-life ([3]; IV 1 mg/kg, read-out: Half life T1/2 (IV) (converted)) | Vd ([3]; IV 1 mg/kg, read-out: Volume of distribution at steady state Vdss) | AUC(0-t) ([3]; PO 2 mg/kg, read-out: Area under drug-time curve AUC0-last PO) | IC50 (p-ERK in DLD-1 cells) | Cmax [4] | bioavailability [4] | clearance [4] | half-life [4] | Vd [4] | AUC(0-t) [4]
C=CC(=O)N1CCN(c2nc(=O)n(-c3c(C)ccnc3C(C)C)c3nc(-c4c(O)cccc4F)c(F)cc23)[C@@H](C)C1 (atropisomer, axis not shown) [AMG-510] | 819 ± 407 mm^3 | 59.4% | – | – | – | – | – | – | – | – | – | – | – | – | – | –
COc1cc2nc(C)nc(N[C@H](C)c3cccc(C(F)(F)C(C)(C)O)c3F)c2cc1OC(=O)N1CCN(C)CC1C (some centres unmarked) [Hydrochloride of compound 14] | – | – | 40.4 nM | 0.0923 µM | 33.9% | 29.2 mL/min/kg | 2.96 h | 4.95 L/kg | 0.606 µM·h | 78.9 nM | – | – | – | – | – | –
COc1cc2nc(C)nc(N[C@H](C)c3cccc(C(F)(F)C(C)(C)O)c3F)c2cc1OC(=O)N1CCN(C)C[C@@H]1C [Hydrochloride of compound 28] | – | – | 14.5 nM | – | – | – | – | – | – | 91.5 nM | 4.59 µM | 98.8% | 36.7 mL/min/kg | 6.01 h | 11.5 L/kg | 37.5 µM·h
COc1cc2nc(C)nc(N[C@H](C)c3cccc(C(F)(F)C(C)(C)O)c3F)c2cc1OC(=O)N1CCN(C)C[C@H]1C [Hydrochloride of compound 29] | – | – | 14.7 nM | – | – | – | – | – | – | 135 nM | 10.9 µM | 91.2% | 18.7 mL/min/kg | 3.46 h | 4.15 L/kg | 74.6 µM·h
